In ChEMBL document CHEMBL3865781, “Recent advances in the discovery and development of antibacterial agents targeting the cell-division protein FtsZ” (Bioorg Med Chem, 2016):
≈ marks a conversion by molar mass, not a printed value.

How the values were obtained:
Escherichia coli [1] = assay: Antibacterial activity against Escherichia coli ATCC 25922 after 18 hrs by broth microdilution method; assay type: functional; details: ATCC 25922, 18 h
Staphylococcus aureus [2] = assay: Antibacterial activity against methicillin-resistant Staphylococcus aureus ATCC BAA-41 after 18 hrs by broth microdilution method; assay type: functional; details: ATCC BAA-41, 18 h
Enterococcus faecalis [3] = assay: Antimicrobial activity against vancomycin-sensitive Enterococcus faecalis after 18 hrs by broth microdilution method; assay type: functional
Klebsiella pneumoniae = assay: Antibacterial activity against Klebsiella pneumoniae ATCC BAA-1144 after 18 hrs by broth microdilution method; assay type: functional; details: ATCC BAA-1144, 18 h
Staphylococcus aureus [4] = assay: Antibacterial activity against methicillin-sensitive Staphylococcus aureus after 18 hrs by broth microdilution method; assay type: functional
[5] = target: T1, Cell division protein FtsZ (Escherichia coli K-12, UniProt P0A9A6); assay: Inhibition of recombinant Escherichia coli K12 FtsZ assembly by light-scattering assay
T1 sequence (P0A9A6 whole entry): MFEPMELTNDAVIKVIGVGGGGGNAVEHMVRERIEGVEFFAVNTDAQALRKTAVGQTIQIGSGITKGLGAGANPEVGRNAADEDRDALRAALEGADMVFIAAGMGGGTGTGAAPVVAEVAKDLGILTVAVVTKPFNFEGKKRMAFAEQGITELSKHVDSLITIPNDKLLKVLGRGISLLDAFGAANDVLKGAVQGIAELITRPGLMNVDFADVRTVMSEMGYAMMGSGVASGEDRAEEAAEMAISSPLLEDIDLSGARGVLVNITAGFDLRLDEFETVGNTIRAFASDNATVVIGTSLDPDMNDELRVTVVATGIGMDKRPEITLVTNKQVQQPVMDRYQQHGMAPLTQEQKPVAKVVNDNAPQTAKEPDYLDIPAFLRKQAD

[6] = target: T1, Cell division protein FtsZ; assay: Inhibition of recombinant Escherichia coli K12 FtsZ GTPase activity by malachite green sodium molybdate assay
Staphylococcus aureus [7] = assay: In vivo antibacterial activity against methicillin-resistant Staphylococcus aureus ATCC 33591 infected in ICR(CD-1) mouse thigh infection model assessed as reduction in colony forming units in thigh muscle at 120 to 160 mg/kg, po measured 24 hrs post infection; assay type: functional
Bacillus subtilis [8] = assay: Antibacterial activity against Bacillus subtilis 168 after 12 hrs by agar dilution assay; assay type: functional; details: subsp. subtilis str. 168, 12 h
[9] = test system: Mycolicibacterium smegmatis; assay: Antibacterial activity against Mycobacterium smegmatis after 12 hrs by agar dilution assay; assay type: functional
Enterococcus faecalis [10] = assay: Antimicrobial activity against vancomycin-resistant Enterococcus faecalis after 18 hrs by broth microdilution method; assay type: functional
Escherichia coli [11] = assay: Antibacterial activity against Escherichia coli by broth dilution method; assay type: functional
Bacillus subtilis [12] = assay: Antibacterial activity against Bacillus subtilis by broth dilution method; assay type: functional
Staphylococcus aureus [13] = assay: Antibacterial activity against methicillin-resistant Staphylococcus aureus by broth dilution method; assay type: functional
[14] = test system: Mycobacterium tuberculosis; assay: Antibacterial activity against Mycobacterium tuberculosis H37Rv measured every 24 hrs for 7 days by MABA assay; assay type: functional
[15] = test system: Mycobacterium tuberculosis; assay: Antibacterial activity against Mycobacterium tuberculosis NHN382 clinical isolates measured every 24 hrs for 7 days by MABA assay; assay type: functional
[16] = test system: Mycobacterium tuberculosis; assay: Antibacterial activity against Mycobacterium tuberculosis TN587 clinical isolates measured every 24 hrs for 7 days by MABA assay; assay type: functional
[17] = test system: Mycobacterium tuberculosis; assay: Antibacterial activity against Mycobacterium tuberculosis W210 clinical isolates measured every 24 hrs for 7 days by MABA assay; assay type: functional
[18] = test system: Mycobacterium tuberculosis; assay: Antibacterial activity against Mycobacterium tuberculosis NHN20 clinical isolates measured every 24 hrs for 7 days by MABA assay; assay type: functional
[19] = test system: Mycobacterium tuberculosis; assay: In vivo antibacterial activity against Mycobacterium tuberculosis H37Rv infected in GKO-TB mouse assessed as reduction in bacterial load in lungs at 50 mg/kg, ip or po bid for 10 consecutive days; assay type: functional
Bacillus subtilis [20] = assay: Antibacterial activity against Bacillus subtilis after 4 hrs; assay type: functional
[21] = test system: Mycolicibacterium smegmatis; assay: Antibacterial activity against Mycobacterium smegmatis after 4 hrs; assay type: functional
Escherichia coli [22] = assay: Antibacterial activity against Escherichia coli; assay type: functional
Salmonella typhimurium = assay: Antibacterial activity against Salmonella typhimurium; assay type: functional, Salmonella enterica subsp. enterica serovar Typhimurium; details: Salmonella enterica
Staphylococcus aureus [23] = assay: Antibacterial against methicillin-resistant Staphylococcus aureus; assay type: functional
Priestia megaterium = assay: Antibacterial against Bacillus megaterium; assay type: functional
[24] = test system: Mycobacterium tuberculosis; assay: In vivo antibacterial activity against Mycobacterium tuberculosis str. Erdman infected in C57BL/6 mouse assessed as reduction in bacterial load in spleens at 50 mg/kg, ip bid on day 5 to 14 post infection measured on day 15 post infection; assay type: functional, Erdman = ATCC 35801
Staphylococcus aureus [25] = assay: Antibacterial activity against methicillin-resistant Staphylococcus aureus after 16 to 24 hrs by microdilution method; assay type: functional
Staphylococcus aureus [26] = assay: Antibacterial activity against methicillin-sensitive Staphylococcus aureus after 16 to 24 hrs by microdilution method; assay type: functional
Staphylococcus aureus [27] = assay: Antibacterial activity against vancomycin-intermediate Staphylococcus aureus isolates after 16 to 24 hrs by microdilution method; assay type: functional
Staphylococcus aureus [28] = assay: Antibacterial activity against vancomycin-resistant Staphylococcus aureus isolates after 16 to 24 hrs by microdilution method; assay type: functional
Staphylococcus aureus [29] = assay: Antibacterial activity against Daptomycin-nonsusceptible Staphylococcus aureus isolates after 16 to 24 hrs by microdilution method; assay type: functional
Staphylococcus aureus [30] = assay: Antibacterial activity against linezolid-nonsusceptible Staphylococcus aureus isolates after 16 to 24 hrs by microdilution method; assay type: functional
[31] = Half life in iv dosed BALB/c mouse administered 1 hr after ABT addition by LC-MS/MS analysis; assay type: ADME, organism-based; details: in vivo
[32] = test system: Mycobacterium tuberculosis; assay: In vivo antibacterial activity against Mycobacterium tuberculosis H37Rv infected in C57BL/6 GKO-mouse assessed as reduction in bacterial load in lungs at 150 mg/kg, ip qd on day 12 post infection for 9 consecutive days; assay type: functional
[33] = test system: Mycobacterium tuberculosis; assay: In vivo antibacterial activity against Mycobacterium tuberculosis H37Rv infected in C57BL/6 GKO-mouse assessed as reduction in bacterial load in spleens at 150 mg/kg, ip qd on day 12 post infection for 9 consecutive days; assay type: functional
Bacillus subtilis [34] = assay: Antibacterial activity against Bacillus subtilis; assay type: functional
Staphylococcus aureus [35] = assay: Antibacterial activity against methicillin-resistant Staphylococcus aureus; assay type: functional
Staphylococcus aureus [36] = assay: Antibacterial activity against multi-drug resistant Staphylococcus aureus; assay type: functional
[37] = Toxicity in mouse infected with Staphylococcus aureus assessed as survival at 30 mg/kg, iv or po; assay type: organism-based; details: in vivo

Question: What does the source list for `COc1ccc2cc3[n+](cc2c1OC)CCc1cc2c(cc1-3)OCO2.[Cl-]` [BERBERINE CHLORIDE]?
Answer: MIC (Escherichia coli [1]): 32 to 128 µg/mL; MIC (Staphylococcus aureus [2]): 2 to 8 µg/mL; MIC (Enterococcus faecalis [3]): 4 to 16 µg/mL; MIC (Klebsiella pneumoniae): 32 to 128 µg/mL; MIC (Staphylococcus aureus [4]): 2 to 8 µg/mL; IC50 [5]: 10 µM; IC50 [6]: 16 µM

Question: With `CN1CCC(C(=O)NC(=O)c2c(F)ccc(OCc3nc4cc(C(F)(F)F)cnc4s3)c2F)CC1` as the compound, how does the Activity (Staphylococcus aureus [7]) read?
Answer: Its Activity is 2 log10CFU.

Question: Which MIC (Bacillus subtilis [8]) does the source give for `CC(=O)O[C@@]12CO[C@@H]1C[C@H](O)[C@@]1(C)C(=O)C(=O)C3=C(C)[C@@H](OC(=O)/C=C/c4ccc5ccccc5c4)C[C@@](O)([C@@H](OC(=O)c4ccccc4)[C@H]21)C3(C)C` here?
Answer: Its MIC is 30 µM (≈ 21.7 µg/mL).

Question: What about the MIC [9] of the same compound?
Answer: The MIC was 60 µM (≈ 43.4 µg/mL).

Question: Which MIC (Escherichia coli [1]) does the source give for `O=C/C=C/c1ccccc1` [CINNAMALDEHYDE] here?
Answer: Its MIC is 32 to 128 µg/mL (≈ 242 to 969 µM).

Question: What about the MIC (Staphylococcus aureus [2]) of the same compound?
Answer: Its MIC is 2 to 8 µg/mL (≈ 15.1 to 60.5 µM).

Question: What about the MIC (Enterococcus faecalis [10]) of the same compound?
Answer: The MIC was 4 to 16 µg/mL (≈ 30.3 to 121 µM).

Question: And the MIC (Enterococcus faecalis [3])?
Answer: The MIC was 4 to 16 µg/mL (≈ 30.3 to 121 µM).

Question: And the MIC (Klebsiella pneumoniae)?
Answer: Its MIC is 32 to 128 µg/mL (≈ 242 to 969 µM).

Question: And the MIC (Staphylococcus aureus [4])?
Answer: The MIC was 2 to 8 µg/mL (≈ 15.1 to 60.5 µM).

Question: What about the MIC (Escherichia coli [11]) of the same compound?
Answer: Its MIC is 0.1 µg/mL (≈ 0.757 µM).

Question: What about the MIC (Bacillus subtilis [12]) of the same compound?
Answer: Its MIC is 0.5 µg/mL (≈ 3.78 µM).

Question: What about the MIC (Staphylococcus aureus [13]) of the same compound?
Answer: The MIC was 0.25 µg/mL (≈ 1.89 µM).

Question: Which results are given for `CN(C)c1cc2[nH]c(C3CCCCC3)nc2cc1NC(=O)c1ccc(OC(F)(F)F)c(F)c1F`?
Answer: MIC99 [14]: 0.39 µg/mL (≈ 0.808 µM); MIC99 [15]: 0.37 µg/mL (≈ 0.767 µM); MIC99 [16]: 0.31 µg/mL (≈ 0.643 µM); MIC99 [17]: 0.47 µg/mL (≈ 0.974 µM); MIC99 [18]: 0.39 µg/mL (≈ 0.808 µM); Activity [19]: 2.5 - 3.4 log10CFU

Question: For `CCC(C)c1ccc(NC(=O)c2cccc3[nH]c(-c4cccs4)nc23)cc1` (centres undefined), which IC50 (Bacillus subtilis [20]) is on record?
Answer: Its IC50 is 1 µM.

Question: What about the IC50 [21] of the same compound?
Answer: Its IC50 is 1.6 µM.

Question: Which MIC (Escherichia coli [22]) does the source give for H-GLLRKGGEKIGEKLKKIGQKIKNFFQKLVPQPEQ-OH here?
Answer: Its MIC is 0.5 to 64 µM.

Question: And the MIC (Salmonella typhimurium)?
Answer: Its MIC is 0.5 to 64 µM.

Question: And the MIC (Staphylococcus aureus [23])?
Answer: Its MIC is 0.5 to 64 µM.

Question: And the MIC (Priestia megaterium)?
Answer: The MIC was 0.5 to 64 µM.

Question: Which MIC99 [14] does the source give for `CN(C)c1cc2[nH]c(C3CCCCC3)nc2cc1NC(=O)c1ccc(OC(F)(F)F)cc1` here?
Answer: Its MIC99 is 0.16 µg/mL (≈ 0.358 µM).

Question: And the MIC99 [15]?
Answer: The MIC99 was 0.16 µg/mL (≈ 0.358 µM).

Question: What about the MIC99 [16] of the same compound?
Answer: The MIC99 was 0.16 µg/mL (≈ 0.358 µM).

Question: And the MIC99 [17]?
Answer: Its MIC99 is 0.16 µg/mL (≈ 0.358 µM).

Question: What about the Activity [24] of the same compound?
Answer: Its Activity is 2.68 log10CFU.

Question: Which results are given for `NC(=O)c1c(F)ccc(OCc2nc3cc(C(F)(F)F)cnc3s2)c1F`?
Answer: MIC (Staphylococcus aureus [25]): 1 µg/mL (≈ 2.57 µM); MIC (Staphylococcus aureus [26]): 1 µg/mL (≈ 2.57 µM); MIC (Staphylococcus aureus [27]): 1 µg/mL (≈ 2.57 µM); MIC (Staphylococcus aureus [28]): 1 µg/mL (≈ 2.57 µM); MIC (Staphylococcus aureus [29]): 1 µg/mL (≈ 2.57 µM); MIC (Staphylococcus aureus [30]): 1 µg/mL (≈ 2.57 µM); half-life [31]: 3.65 h

Question: Which results are given for `CCCCOC(=O)Nc1cc2nc(C3CCCCC3)[nH]c2cc1N(CC)CC`?
Answer: MIC99 [14]: 0.63 µg/mL (≈ 1.63 µM); MIC99 [15]: 1.25 µg/mL (≈ 3.23 µM); MIC99 [16]: 1.25 µg/mL (≈ 3.23 µM); MIC99 [17]: 1.25 µg/mL (≈ 3.23 µM); Activity [32]: 0.41 log10CFU; Activity [33]: 0.7 log10CFU

Question: Which results are given for `NC(=O)c1c(F)ccc(OCc2nc3cc(Cl)cnc3s2)c1F`?
Answer: MIC (Bacillus subtilis [34]): 0.5 to 1 µg/mL (≈ 1.41 to 2.81 µM); MIC (Staphylococcus aureus [35]): 0.5 to 1 µg/mL (≈ 1.41 to 2.81 µM); MIC (Staphylococcus aureus [36]): 0.5 to 1 µg/mL (≈ 1.41 to 2.81 µM); survival [37]: 100%; half-life [31]: 0.56 h
